Five compounds from US20230365526A1, “PYRIDAZINE DERIVATIVES FOR MODULATING NUCLEIC ACID SPLICING” (REMIX THERAPEUTICS INC., priority 2020, published 2023) can be followed below.

Type in all cases: cell-based
One assay concerns Target C. In words: Gene panel canonical junction RT-qPCR assay: Target C. As to conditions: read-out: Target C (IC50, decrease in CJ mRNA levels). As to the method: (§1) Compounds described herein were used to modulate RNA transcript abundance in cells. The expression of a target mRNA was measured by detecting the formation of an exon-exon junction in the canonical transcript (CJ). A compound mediated exon-inclusion event was detected by observing an increase in formation of a new junction with an alternative exon (AJ). Real-time qPCR assays were used to detect these splicing switches and interrogate the potency of various compounds towards different target genes. A high-throughput real time quantitative PCR (RT-qPCR) assay was developed to measure these two isoforms of the mRNA (CJ and AJ) for an exemplary gene, HTT, together with a control housekeeping gene, GAPDH or GUSB or PPIA, used for normalization. Briefly, the A673 or K562 cell line was treated with various compounds described herein (e.g., compounds of Formula (I)). After treatment, the levels of the HTT mRNA targets were determined from each sample of cell lysate by cDNA synthesis followed by qPCR.
(§2) The A673 cell line was cultured in DMEM with 10% FBS. Cells were diluted with full growth media and plated in a 96-well plate (15,000 cells in 100 ul media per well). The plate was incubated at 37° C. with 5% CO2 for 24 hours to allow cells to adhere. An 11-point 3-fold serial dilution of the compounds was made in DMSO then diluted in media in an intermediate plate. Compounds were transferred from the intermediate plate to the cell plate with the top dose at a final concentration of 10 uM in the well. Final DMSO concentration was kept at or below 0.25%. The cell plate was returned to the incubator at 37° C. with 5% CO2 for an additional 24 hours.
(§3) The K562 cell line was cultured in IMDM with 10% FBS. For K562, cells were diluted with full growth media and plated in either a 96-well plate (50,000 cells in 50 uL media per well) or a 384-well plate (8,000-40,000 cells in 45 uL media per well). An 11-point 3-fold serial dilution of the compounds were made in DMSO then diluted in media in an intermediate plate. Compound was transferred from the intermediate plate to the cell plate with the top dose at a final concentration of 10 uM in the well. Final DMSO concentration was kept at or below 0.25%. Final volume was 100 uL for 96-well plate and 50 uL for 384-well plate. The cell plate was then placed in an incubator at 37° C. with 5% CO2 for 24 hours.
(§4) The cells were then gently washed with 50 uL-100 uL cold PBS before proceeding to addition of lysis buffer. 30 uL-50 uL of room temperature lysis buffer with DNAse I (and optionally RNAsin) was added to each well. Cells were shaken/mixed thoroughly at room temperature for 5-10 minutes for lysis to take place and then 3 uL-5 uL of room temperature stop solution was added and wells were shaken/mixed again. After 2-5 minutes, the cell lysate plate was transferred to ice for RT-qPCR reaction setup. The lysates could also be frozen at −80° C. for later use.
(§5) In some cases, a direct lysis buffer was used. An appropriate volume of 3×lysis buffer (10 mM Tris, 150 mM NaCl, 1.5%-2.5% Igepal and 0.1-1 U/uL RNAsin, pH 7.4) was directly added to either K562 or A673 cells in media and mixed by pipetting 3 times. The plates were then incubated at room temperature with shaking/rocking for 20-50 minutes to allow for lysis to take place. After this time, the cell lysate plate was transferred to ice to set up for the RT-qPCR reactions. The lysates could also be frozen at −80° C. for later use.
(§6) To set up 10 uL RT-qPCR reactions, cell lysates were transferred to 384-well qPCR plates containing the master mix according to the table below. The plates were sealed, gently vortexed, and spun down before the run. The volumes were adjusted accordingly in some instances where the reaction was carried in 20 uL. The table below summarizes the components of the RT-qPCR reactions:
(§7) The RT-qPCR reaction was performed using a QuantStudio (ThermoFisher) under the following fast cycling conditions. […]
For orientation: Real-time PCR tracks product formation cycle by cycle.

Another assay deals with HTT mRNA. In words: RT-qPCR splicing assay monitoring HTT canonical (CJ) and alternative (AJ) junction mRNA in A673 or K562 cells. Conditions: 24 hours compound treatment, top dose 10 uM. As to the method: as §1
• Cells-to-CT 1-step kit: ThermoFisher A25602, Cells-to-CT lysis reagent: ThermoFisher 4391851C, TaqMan™ Fast Virus 1-Step Master Mix: ThermoFisher 4444436 • GAPDH: VIC-PL, ThermoFisher 4326317E (Assay: Hs99999905_m1)—used for K562/suspension cell lines • GUSB: VIC-PL, ThermoFisher 4326320E (Assay: Hs99999908_m1)—used for K562/suspension cell lines • PPIA: VIC-PL, ThermoFisher 4326316E (Assay: Hs99999904_m1)—used for A673/adherent cell lines
as §2, §3, §4
In some cases, a direct lysis buffer was used. An appropriate volume of 3×lysis buffer (10 mM Tris, 150 mM NaCl, 1.5%-2.5% Igepal and 0.1-1 U/uL RNAsin, pH 7.4) was directly added to either K562 or A673 cells in media and mixed by pipetting 3 times. The plates were then incubated at room temperature with shaking/rocking for 20-50 minutes to allow for lysis to take place. After this time, the cell lysate plate was transferred to ice to set up for the RT-qPCR reactions. The lysates could also be frozen at −80° C. for later use. […]

For the next assay, the system named is SMN2. In words: Gene panel canonical junction RT-qPCR assay: SMN2. Conditions: read-out: SMN2 (IC50, decrease in CJ mRNA levels). The protocol:
as §1, §2, §3, §4, §5, §6, §7

A further assay relates to HTT. The assay can be described thus: Gene panel canonical junction RT-qPCR assay: HTT. As to conditions: read-out: HTT (IC50, decrease in CJ mRNA levels). The protocol:
as §1, §2, §3, §4, §5, §6, §7

The mark [1] stands for this setting: decrease in CJ mRNA, read-out: HTT CJ AC50.
Where [2] appears, read: increase in AJ mRNA, read-out: HTT AJ AC50.

SMILES strings stand for the structures. Read-outs that look alike come from different tables or passages of the source.

Turning to `COc1nc(-c2ccc(N(C)[C@@H]3C[C@H]4CC[C@@H](C3)N4)nn2)ccc1-n1cccn1` [Compound 134, (1R,3S,5S)—N-[6-[6-methoxy-5-(pyrazol-1-yl)pyridin-2-yl]pyridazin-3-yl]-N-methyl-8-azabicyclo[3.2.1]octan-3-amine], the figures for the IC50 in the assay on Target C, with SMN2 and in the assay on HTT were over 10000 nM, 100 to 1000 nM and 100 to 1000 nM, respectively. The half-maximal activity concentration (AC50) with HTT mRNA (setting [1]) and in the assay on HTT mRNA (setting [2]) was 100 to 1000 nM each time.

Turning to `Cc1nc(-c2ccc(N(C)[C@@H]3C[C@H]4CC[C@@H](C3)N4)nn2)ccc1-c1cn[nH]c1` [Compound 171], the half-maximal inhibitory concentration (IC50) is 1000 to 10000 nM in the assay on Target C, 100 to 1000 nM in the assay on SMN2 and 1000 to 10000 nM in the assay with HTT. In addition, the AC50 in the assay on HTT mRNA (setting [1]) and in the assay on HTT mRNA (setting [2]) was 1000 to 10000 nM in each case.

As for `COc1nc(-c2ccc(N(C)[C@@H]3C[C@H]4CC[C@@H](C3)N4)nn2)ncc1-c1cn[nH]c1` [Compound 207], the 50% inhibitory concentration (IC50) in the assay on Target C, with SMN2 and in the assay on HTT was 1000 to 10000 nM throughout. For the same compound, the concentration at half-maximal activity (AC50) in the assay on HTT mRNA (setting [1]) and in the assay with HTT mRNA (setting [2]) was 1000 to 10000 nM in each case.

On to `COc1cc(-c2ccc(N(C)[C@@H]3C[C@H]4CC[C@@H](C3)N4)nn2)ccc1-c1cn[nH]c1` [Compound 208], for which the IC50 is 100 to 1000 nM with Target C, under 100 nM in the assay on SMN2 and 100 to 1000 nM in the assay with HTT. Moreover, the AC50 with HTT mRNA (setting [1]) and in the assay with HTT mRNA (setting [2]) was 100 to 1000 nM throughout.

Consider `CN(c1ccc(-c2ccc(-c3cn[nH]c3)cn2)nn1)[C@@H]1C[C@H]2CC[C@@H](C1)N2` [Compound 217], for which the concentration for half-maximal inhibition (IC50) was 1000 to 10000 nM with Target C, over 10000 nM with SMN2 and 100 to 1000 nM in the assay on HTT. For the same compound, the concentration at half-maximal activity (AC50) in the assay with HTT mRNA (setting [1]) and in the assay with HTT mRNA (setting [2]) was 100 to 1000 nM throughout.

The term IC50 denotes the point on the concentration scale where inhibition reaches its midpoint. By AC50 is commonly meant the concentration at which the activity in the assay is half-maximal.
